Test results reported in patent publication US7476671B2, “2-amino-imidazo[4,5-d]pyridazin-4-ones, their preparation and their use as pharmaceutical compositions” (Boehringer Ingelheim International GmbH, priority 2004, dated 2009).

biological target: T1, DPP-IV (Homo sapiens, UniProt P27487); assay: DPP-IV assay with extract of the human colon carcinoma cell line Caco-2 as DPP IV source, AFC substrate, fluorescence; format: biochemical; conditions: solubilised Caco-2 protein, substrate 100 μM, 60 minutes at ambient temperature, 11-point curves; read-out: DPP IV inhibition IC50
T1 construct: an extract of the human colon carcinoma cell line Caco-2 is used as the DPP IV source; endogenous in cells; host or cells: Caco-2 (human colon carcinoma), differentiated to induce DPP-IV expression; Nonidet-P40 solubilised extract
T1 sequence (P27487 whole entry): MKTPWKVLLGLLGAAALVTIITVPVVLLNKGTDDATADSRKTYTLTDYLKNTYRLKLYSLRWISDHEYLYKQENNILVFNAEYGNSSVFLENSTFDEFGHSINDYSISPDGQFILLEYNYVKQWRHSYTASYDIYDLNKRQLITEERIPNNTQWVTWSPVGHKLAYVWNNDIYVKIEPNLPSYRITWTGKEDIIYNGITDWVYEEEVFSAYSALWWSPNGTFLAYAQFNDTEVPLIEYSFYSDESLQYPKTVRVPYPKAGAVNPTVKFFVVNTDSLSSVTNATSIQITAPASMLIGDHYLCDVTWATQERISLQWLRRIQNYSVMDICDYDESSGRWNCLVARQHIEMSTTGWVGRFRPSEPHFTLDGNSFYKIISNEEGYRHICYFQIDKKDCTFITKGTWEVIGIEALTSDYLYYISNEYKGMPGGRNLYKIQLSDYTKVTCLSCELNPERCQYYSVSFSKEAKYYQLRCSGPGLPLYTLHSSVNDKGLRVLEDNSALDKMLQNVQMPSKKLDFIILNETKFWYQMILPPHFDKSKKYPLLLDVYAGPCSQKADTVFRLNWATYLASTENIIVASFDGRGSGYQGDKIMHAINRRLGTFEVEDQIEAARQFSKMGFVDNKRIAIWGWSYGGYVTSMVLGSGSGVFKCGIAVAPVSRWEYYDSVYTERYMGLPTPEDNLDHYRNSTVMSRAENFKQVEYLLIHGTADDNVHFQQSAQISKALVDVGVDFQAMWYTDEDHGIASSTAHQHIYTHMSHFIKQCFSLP
Protocol: The differentiation of the cells in order to induce the DPP-IV expression was carried out in accordance with the description by Reiher et al. in an article entitled “Increased expression of intestinal cell line Caco-2”, which appeared in Proc. Natl. Acad. Sci. Vol. 90, pp. 5757-5761 (1993).
The cell extract was obtained from cells solubilised in a buffer (10 mM Tris HCl, 0.15 M NaCl, 0.04 t.i.u. aprotinin, 0.5% Nonidet-P40, pH 8.0) by centrifugation at 35,000 g for 30 minutes at 4° C. (to remove cell debris).
The DPP-IV assay was carried out as follows:
50 μl of substrate solution (AFC; AFC is amido-4-trifluoromethylcoumarin), final concentration 100 μM, were placed in black microtitre plates. 20 μl of assay buffer (final concentrations 50 mM Tris HCl, pH 7.8, 50 mM NaCl, 1% DMSO) was pipetted in. The reaction was started by the addition of 30 μl of solubilised Caco-2 protein (final concentration 0.14 μg of protein per well). The test substances under investigation were typically added prediluted to 20 μl, while the volume of assay buffer was then reduced accordingly. The reaction was carried out at ambient temperature, the incubation period was 60 minutes. Then the fluorescence was measured in a Victor 1420 Multilabel Counter, with the excitation wavelength at 405 nm and the emission wavelength at 535 nm. Dummy values (corresponding to 0% activity) were obtained in mixtures with no Caco-2 protein (volume replaced by assay buffer), control values (corresponding to 100% activity) were obtained in mixtures without any added substance. The potencies of the test substances in question, expressed as IC50 values, were calculated from dosage/activity curves consisting of 11 measured points in each case.

Row | IC50 | Compound
1 | 1 nM | CC#CCn1c(N(C)CCN)nc2cnn(Cc3nc(C)c4ccccc4n3)c(=O)c21 [Example 1, 2-[N-(2-aminoethyl)-N-methyl-amino]-3-(2-butyn-1-yl)-5-[(4-methyl-quinazolin-2-yl)methyl]-3,5-dihydro-imidazo[4,5-d]pyridazin-4-one]
2 | 2 nM | CC#CCn1c(N(C)C[C@H](C)N)nc2cnn(Cc3nc(C)c4ccccc4n3)c(=O)c21 [Example 3, (S)-2-[N-(2-aminopropyl)-N-methyl-amino]-3-(2-butyn-1-yl)-5-[(4-methyl-quinazolin-2-yl)methyl]-3,5-dihydro-imidazo[4,5-d]pyridazin-4-one]

Continued, compound first:

Row | Compound | IC50
3 | CC#CCn1c(N(C)CCN)nc2cnn(Cc3nc(C)cc4ccccc34)c(=O)c21 [1(1), 2-[N-(2-aminoethyl)-N-methyl-amino]-3-(2-butyn-1-yl)-5-[(3-methyl-isoquinolin-1-yl)methyl]-3,5-dihydro-imidazo[4,5-d]pyridazin-4-one] | 10 nM
4 | CC#CCn1c(N(C)CCN)nc2ccn(Cc3nc(C)cc4ccccc34)c(=O)c21 [1(2), 2-[N-(2-aminoethyl)-N-methyl-amino]-3-(2-butyn-1-yl)-5-[(3-methyl-isoquinolin-1-yl)methyl]-3,5-dihydro-imidazo[4,5-c]pyridin-4-one] | 34 nM
5 | CC#CCn1c(N(C)CC(C)(C)N)nc2cnn(Cc3ccccc3C#N)c(=O)c21 [2(1), 2-[N-(2-amino-2-methyl-propyl)-N-methyl-amino]-3-(2-butyn-1-yl)-5-(2-cyanophenyl-methyl)-3,5-dihydro-imidazo[4,5-d]pyridazin-4-one] | 336 nM
6 | CC#CCn1c(N(C)C[C@H](C)N)nc2cnn(Cc3ccccc3C#N)c(=O)c21 [Example 2, (S)-2-[N-(2-amino-propyl)-N-methyl-amino]-3-(2-butyn-1-yl)-5-(2-cyanophenylmethyl)-3,5-dihydro-imidazo[4,5-d]pyridazin-4-one] | 76 nM

tested on: not listed separately; assay: Tolerability after oral administration; format: in vivo; conditions: oral administration of 10 mg/kg

Row | Compound | toxic side effects / tolerability
7 | CC#CCn1c(N(C)CCN)nc2cnn(Cc3nc(C)c4ccccc4n3)c(=O)c21 [Example 1, 2-[N-(2-aminoethyl)-N-methyl-amino]-3-(2-butyn-1-yl)-5-[(4-methyl-quinazolin-2-yl)methyl]-3,5-dihydro-imidazo[4,5-d]pyridazin-4-one] | no toxic side effects
